The values that follow are results of earlier work, collected in US20250041322A1, “HEAT STRESS RELIEVING AGENT” (Hayashibara Co., Ltd., priority 2018, published 2025).

On to `COc1ccc(C2CC(=O)c3c(O)cc(O[C@@H]4OC(CO)[C@@H](O)C(O)C4O)cc3O2)cc1O` (stereo partly drawn) [7-O-β-glucosyl hesperetin], for which the “Water solubility, comparison in words” value is “more water-soluble than hesperidin”.
